≈ marks a conversion by molar mass, not a printed value.
Tests used:
Type in all cases: cell-based
E. coli [1] = test: drop test activity screening; note: key: Y = antibacterial activity; N = No antibacterial activity
Text: (§1) The ability of each of the compounds of the invention to impact bacterial growth and viability has been tested. This has been undertaken using a novel drop-test method for initial activity screening, as well as using conventional growth curve analysis methodology. This novel class of antimicrobial agent has shown bactericidal activity against Gram +ve (e.g. S. aureus, Bacillus megaterium) and bacteriostatic activity against Gram −ve isolates (e.g. E. coli).
(§2) The compounds were screened initially by drop testing methods and then by growth rate methods as it was identified that drop testing methods could give false negatives.

S. aureus [2] = test: drop test activity screening; note: key: Y = antibacterial activity; N = No antibacterial activity
Text: as §1, §2

E. coli [3] = test: growth rate (growth curve) activity screening; conditions: first E. coli growth column, phase not given
Text: as §1, §2

S. aureus [4] = test: growth rate (growth curve) activity screening; conditions: for Grow Rates activity S. aureus Log: log phase bacterial growth; for Grow Rates activity S. aureus: phase not given
Text: as §1, §2

S. aureus [5] = test: Calculated MIC50 and MIC100 values; conditions: for MIC50 Staph Log / MIC100 Staph Log: log phase; for MIC50 Staph Stat / MIC100 Staph Stat: stationary phase
Text: (§3) The present inventors have determined MIC50 values, in the nM-μM range, for lead compounds, against clinical S. aureus isolates (e.g. MRSA) and E. coli in both log and stationary phases.

E. coli [6] = test: Calculated MIC50 and MIC100 values
Text: as §3

Row | Compound | drop test activity E. coli (E. coli [1]) | drop test activity S. aureus (S. aureus [2]) | Grow Rates activity S. aureus Log (S. aureus [4]) | further results
1 | O=C(NCS(=O)(=O)O)Nc1ccc2cc3ccccc3cc2c1 [Compound 52] | N | N | Y | Grow Rates activity E. coli (E. coli [3]): Y; MIC50 Staph Log (S. aureus [5]): 330.0044 μg/mL
2 | O=C(NCS(=O)(=O)O)Nc1ccc(C(F)(F)F)cc1 [Compound 31] | N | Y | Y | MIC50 Staph Log (S. aureus [5]): 21.6 μg/mL; MIC100 Staph Log (S. aureus [5]): 22.68 μg/mL; MIC50 Staph Stat (S. aureus [5]): 14.79 µg/mL (≈ 49.6 µM); MIC100 Staph Stat (S. aureus [5]): 14.84 µg/mL (≈ 49.8 µM)
3 | CCCCNC(=S)NCCS(=O)(=O)O [Compound 49, reference compound] | N | N |  | 
4 | O=S(=O)(O)CCNC(=S)Nc1ccc(C(F)(F)F)cc1 [Compound 4] | N | Y |  | 
5 | O=C(NCCS(=O)(=O)O)Nc1ccc(C(F)(F)F)cc1 [Compound 3] | N | N |  | 
6 | Nc1ccc(NC(=O)NCS(=O)(=O)O)cc1 [Compound 74] | N | N | Y | 
7 | O=S(=O)(O)CCCNC(=S)Nc1ccc(C(F)(F)F)cc1 [Compound 6] | N | Y |  | 
8 | O=S(=O)(O)CNC(=S)Nc1ccc(C(F)(F)F)cc1 [Compound 62] | N | N | Y | 
9 | O=C(NCS(=O)(=O)[O-])Nc1ccc(C(F)(F)F)cc1.[Na+] [Compound 41] | N | Y |  | 
10 | CCCCNC(=S)NCS(=O)(=O)O [Compound 47, reference compound] | N | N |  | 
11 | O=C(NCS(=O)(=O)O)Nc1cccc2ccccc12 [Compound 45] | N | N |  | 
12 | O=C(NCS(=O)(=O)[O-])Nc1ccc(C(F)(F)F)cc1.[K+] [Compound 42] | N | N |  | 
13 | CCCCNC(=O)NCCCS(=O)(=O)O [Compound 50, reference compound] | N | N |  | 
14 | O=C(NCS(=O)(=O)O)Nc1ccc(C(F)(F)F)cc1 [Compound 1] | N | Y | Y | Grow Rates activity E. coli (E. coli [3]): Y; Grow Rates activity S. aureus (S. aureus [4]): Y; MIC50 Coli Stat (E. coli [6]; stationary phase): 412.0789 µg/mL (≈ 1380 µM); MIC100 Coli Stat (E. coli [6]; stationary phase): 421.0559 µg/mL (≈ 1410 µM); MIC50 Staph Log (S. aureus [5]): 7.35 μg/mL; MIC100 Staph Log (S. aureus [5]): 29.41 μg/mL; MIC50 Staph Stat (S. aureus [5]): 209.132 µg/mL (≈ 701 µM); MIC100 Staph Stat (S. aureus [5]): 254.5639 µg/mL (≈ 854 µM)
15 | COc1ccc(NC(=O)NCS(=O)(=O)O)cc1 [Compound 39] | N | N |  | 
16 | O=S(=O)(O)CNC(=S)Nc1ccc(C(F)(F)F)cc1 [Compound 61] | N | N | Y | 
17 | O=C(NCS(=O)(=O)O)Nc1cc(C(F)(F)F)cc(C(F)(F)F)c1 [Compound 44] | N | Y |  | 
18 | O=C(NCS(=O)(=O)O)Nc1ccccc1-c1nc2ccccc2s1 [Compound 54] | N | N |  | 

Row | Compound | drop test activity E. coli (E. coli [1]) | drop test activity S. aureus (S. aureus [2]) | Grow Rates activity S. aureus Log (S. aureus [4]) | further results
19 | O=C(NCS(=O)(=O)O)Nc1ccc(C(F)(F)F)cc1 [Compound 37] | N | Y | Y | MIC50 (E. coli [6]; Escherichia coli, stationary phase, read-out: MIC50 Coli Stat): 451 µg/mL (≈ 1510 µM); MIC (E. coli [6]; Escherichia coli, stationary phase, read-out: MIC100 Coli Stat): 480 µg/mL (≈ 1610 µM); MIC50 Coli Log (E. coli [6]; log phase): 236.9979 μg/mL; MIC100 Coli Log (E. coli [6]; log phase): 505.6726 μg/mL; MIC50 Staph Log (S. aureus [5]): 29.08 μg/mL; MIC100 Staph Log (S. aureus [5]): 30.35 μg/mL; MIC50 Staph Stat (S. aureus [5]): 464.1399 µg/mL (≈ 1560 µM); MIC100 Staph Stat (S. aureus [5]): 559.1301 µg/mL (≈ 1870 µM)
20 | O=S(=O)(O)CNC(=S)Nc1cc(C(F)(F)F)cc(C(F)(F)F)c1 [Compound 43] | N | Y | Y | Grow Rates activity E. coli (E. coli [3]): Y
21 | O=S(=O)(O)CNC(=S)Nc1ccc(C(F)(F)F)cc1 [Compound 63] | N | N |  | 
22 | CCCCNC(=O)NCCS(=O)(=O)O [Compound 48, reference compound] | N | N |  | 
23 | Cc1ccc2nc(NC(=O)NCS(=O)(=O)O)sc2c1 [Compound 72] | N | N | N | Grow Rates activity S. aureus (S. aureus [4]): Y
24 | O=C(NCS(=O)(=O)O)Nc1ccc(Cc2ccc(NC(=O)NCS(=O)(=O)O)cc2)cc1 [Compound 68] | N | Y | Y | MIC50 Staph Log (S. aureus [5]): 370.0761 μg/mL
25 | O=C(NCS(=O)(=O)O)Nc1ccc(C(F)(F)F)cc1 [Compound 34] | N | Y | Y | Grow Rates activity E. coli (E. coli [3]): Y; MIC50 Staph Log (S. aureus [5]): 146.6192 μg/mL
26 | O=C(NCS(=O)(=O)O)Nc1ccc(C(F)(F)F)cc1 [Compound 33] | N | Y | Y | MIC50 Staph Log (S. aureus [5]): 0.45 μg/mL; MIC100 Staph Log (S. aureus [5]): 2.971 μg/mL; MIC50 Staph Stat (S. aureus [5]): 5.579 µg/mL (≈ 18.7 µM); MIC100 Staph Stat (S. aureus [5]): 7.304 µg/mL (≈ 24.5 µM)
27 | O=C(NCS(=O)(=O)O)Nc1ccc([N+](=O)[O-])cc1 [Compound 38] | N | Y | Y | Grow Rates activity E. coli (E. coli [3]): Y
28 | O=C(NCS(=O)(=O)O)Nc1c(F)c(F)c(F)c(F)c1F [Compound 65] | N | N |  | 
29 | CCCCNC(=O)NCS(=O)(=O)O [Compound 46, reference compound] | N | N |  | 
30 | CCCCNC(=S)NCCCS(=O)(=O)O [Compound 51, reference compound] | N | N |  | 
31 | O=C(NCS(=O)(=O)O)Nc1ccc(C(F)(F)F)cc1 [Compound 32] | N | Y | Y | MIC50 Staph Log (S. aureus [5]): 19.14 μg/mL; MIC100 Staph Log (S. aureus [5]): 20.08 μg/mL; MIC50 Staph Stat (S. aureus [5]): 39.4 µg/mL (≈ 132 µM); MIC100 Staph Stat (S. aureus [5]): 57 µg/mL (≈ 191 µM)
32 | O=S(=O)(O)CNC(=S)Nc1ccc(C(F)(F)F)cc1 [Compound 2] | N | Y | Y | Grow Rates activity E. coli (E. coli [3]): Y; MIC50 Staph Log (S. aureus [5]): 54.13 μg/mL; MIC100 Staph Log (S. aureus [5]): 93.55 μg/mL
33 | Cc1ccc2sc(-c3ccc(NC(=O)NCS(=O)(=O)O)cc3)nc2c1 [Compound 53] | N | Y | Y | Grow Rates activity E. coli (E. coli [3]): Y; MIC50 Staph Log (S. aureus [5]): 21.11 μg/mL
34 | O=C(NCS(=O)(=O)O)Nc1nc2ccccc2s1 [Compound 71] | N | N | Y | Grow Rates activity S. aureus (S. aureus [4]): N
35 | O=C(NCS(=O)(=O)O)Nc1ccccc1 [Compound 40] | N | N |  | 
36 | O=C(NCCCS(=O)(=O)O)Nc1ccc(C(F)(F)F)cc1 [Compound 5] | N | N |  | 

Source: patent US11701333B2, “Antibacterial compounds” (KENT INNOVATION & ENTERPRISE, priority 2017, dated 2023)
